Source: US20080051454A1, “Compositions and methods for transient receptor potential vanilloid (TRPV) channel mediated treatments” (The Board of Trustees Operating Michigan State University, priority 2006, published 2008)

Tests used:
rats = test: Mean arterial pressure before and after left renal pelvis perfusion (LRPP) treatments; format: in vivo, rat; details: for Mean arterial pressure, Treatment: after treatment; for Mean arterial pressure, Baseline: before treatment
Description: Urine flow rate (V, FIG. 3a) and urinary sodium excretion (UNaV, FIG. 3b) of the contralateral kidney are shown (n=5-6 in each group). +vs baseline and all other groups, +p<0.05.

TRPV1−/− hearts = test: Preconditioning (PC) protection against I/R in Langendorff hearts with receptor antagonists, TRPV1-null; set-up: species or system mouse; details: CAPZ 10^−7 M, CGRP8-37 10^−6 M, RP67580 10^−7 M
Description: Male TRPV1 gene knockout (TRPV1-/-) strain B6.129S[…][…]^tm1Jul and matching control wild type (WT) strain C57BL/6J mice were used (Jackson Laboratory, Bar Harbor, Me.). Mice were heparinized (500 U/kg i.p.) and anesthetized with pentobarbital sodium (50 mg/kg i.p.). […] The distal end of the catheter was connected to a […] Performance Analyzer via a pressure transducer. Coronary flow (CF) was continuously measured using an ultrasonic flow probe placed in the aortic perfusion line. Hearts were paced at 400 bpm except during ischemic PC and sustained global ischemia to avoid inducing excessive ventricular tachyarrhythmia during reperfusion, and pacing was reinitiated 2 minutes after reperfusion. Left ventricular developed pressure (LVDP, peak systolic minuses LVEDP) and LV peak positive […]) during isovolumic contraction were used as indices of LV systolic function; LVEDP and the peak negative […] used as indices of LV diastolic function. […] Non-preconditioned hearts were time-matched perfused with the same duration as that of preconditioned hearts. Group 1: Controls. As normal controls (nonischemic), WT and TRPV1-/- hearts were perfused for 130 minutes. For I/R controls, WT and TRPV1-/- hearts were first perfused with Krebs-Henseleit buffer for 55 min (time-matched perfusion of the equilibration period plus the PC period), and subsequently subjected to 30 minutes of no-flow normothermic global ischemia followed by 40-minutes of reperfusion. Group 2: PC. […] The hearts were subjected to 30 minutes of no-flow normothermic global ischemia followed by 40-minutes of reperfusion as that of I/R control groups. Group 3: PC plus capsazepine (CAPZ). […] Two additional concentrations of CAPZ, 10^-6M and 10^-8 M, were used in WT hearts. An additional drug control was added. After a 20-minute equilibration period, WT hearts were perfused with CAPZ (10^-7 M) for 10 minutes without PC, followed by perfusion with Krebs-Henseleit buffer for 25 minutes (time-matched perfusion of the PC period) and then subjected to I/R. Group 4: […] […]

WT hearts [1] = test: Lactate dehydrogenase (LDH) release during I/R; set-up: species or system mouse
Description: Lactate dehydrogenase (LDH) release: In addition to the measurement of cardiac function, cardiac injury was assessed by measuring LDH release. Perfusion effluent was collected during the first 10 minutes to 20 minutes of I/R and stored at […] until analyzed. Total LDH levels were determined with the use of a CytoTox 96 assay (Promega). The data were expressed as absorbance units released per milliliter per minute per gram of heart wet tissues (Turnbull et al., Am J Physiol Heart Circ Physiol 290: […]-9, 2006; herein incorporated by reference).

hearts of WT mice = test: Langendorff perfused heart, ischemia and reperfusion (I/R) with OLDA, wild type; set-up: species or system mouse; details: antagonist 1×10^−6 M
Description: The following measurements were made on the two types of heart tissue: left ventricular end-diastolic pressure (LVEDP), left ventricular developed pressure (LVDP), coronary flow (CF), and left ventricular (LV) peak positive rate of pressure change/rate of time change (+dP/dt) were evaluated after I/R.

WT hearts [2] = test: Preconditioning (PC) protection against I/R in Langendorff hearts with receptor antagonists, wild type; set-up: species or system mouse
Description: Male TRPV1 gene knockout (TRPV1-/-) strain B6.129S[…][…]^tm1Jul and matching control wild type (WT) strain C57BL/6J mice were used (Jackson Laboratory, Bar Harbor, Me.). Mice were heparinized (500 U/kg i.p.) and anesthetized with pentobarbital sodium (50 mg/kg i.p.). […] The distal end of the catheter was connected to a […] Performance Analyzer via a pressure transducer. Coronary flow (CF) was continuously measured using an ultrasonic flow probe placed in the aortic perfusion line. Hearts were paced at 400 bpm except during ischemic PC and sustained global ischemia to avoid inducing excessive ventricular tachyarrhythmia during reperfusion, and pacing was reinitiated 2 minutes after reperfusion. Left ventricular developed pressure (LVDP, peak systolic minuses LVEDP) and LV peak positive […]) during isovolumic contraction were used as indices of LV systolic function; LVEDP and the peak negative […] used as indices of LV diastolic function. […] Non-preconditioned hearts were time-matched perfused with the same duration as that of preconditioned hearts. Group 1: Controls. As normal controls (nonischemic), WT and TRPV1-/- hearts were perfused for 130 minutes. For I/R controls, WT and TRPV1-/- hearts were first perfused with Krebs-Henseleit buffer for 55 min (time-matched perfusion of the equilibration period plus the PC period), and subsequently subjected to 30 minutes of no-flow normothermic global ischemia followed by 40-minutes of reperfusion. Group 2: PC. […] The hearts were subjected to 30 minutes of no-flow normothermic global ischemia followed by 40-minutes of reperfusion as that of I/R control groups. Group 3: PC plus capsazepine (CAPZ). […] Two additional concentrations of CAPZ, 10^-6M and 10^-8 M, were used in WT hearts. An additional drug control was added. After a 20-minute equilibration period, WT hearts were perfused with CAPZ (10^-7 M) for 10 minutes without PC, followed by perfusion with Krebs-Henseleit buffer for 25 minutes (time-matched perfusion of the PC period) and then subjected to I/R. Group 4: […] Two additional concentrations of CGRP8-37, 10^-5 M and 10^-7 M, were used in WT hearts. An additional drug control of CGRP8-37 was added as that of the CAPZ control group. Group 5: PC plus RP67580. To determine the role of endogenous SP during PC, hearts from WT and TRPV1-/-mice were perfused as that of CAPZ with RP67580 (10^-7 M), a selective neurokinin-1 (NK1) receptor antagonist. Two additional concentrations of RP67580, 10^-6 M and 10^-8 M, were used in WT hearts. An additional drug control of RP67580 was added as that of the CAPZ control group.

male Wistar rats = test: Depressor effect of 20-HETE analog DSR given IV, with or without antagonists; format: in vivo, rat; details: DSR 1 mg/kg with CAPZ 3 mg/kg, RP67580 4 mg/kg or CGRP 8-37 3 mg/kg
[3] = tested on: Wistar rats (Con-NS, Con-HS, Cap-NS, Cap-HS); test: Natriuretic, diuretic and depressor effects of i.v. diuretics in control and capsaicin-pretreated rats on normal or high sodium diet; format: in vivo, rat; details: intravenous
Description: (a) Urine flow rate. (b) Urine sodium excretion. […] (c) Mean arterial pressure. […] Vehicle; trichlormethiazide.
(a) Urine flow rate. (b) Urine sodium excretion. […] (c) Mean arterial pressure.
(a) Urine flow rate. (b) Urine sodium excretion. […] (c) Mean arterial pressure. […] Vehicle; amiloride.
Design and methods Neonatal Wistar rats were treated with capsaicin or vehicle. Seven-week-old male rats were treated for 2 weeks with: vehicle plus a normal (Con-NS) or high (Con-HS) sodium diet, and capsaicin pretreatment plus a normal (Cap-NS) or high (Cap-HS) sodium diet. Mean arterial pressure (MAP), renal excretory function, and protein expression determined by Western blot were performed.

`[Cl-].[K+]` [150 KCl, KCl] was tested, and the “Mean arterial pressure, Treatment” value (rats) was 125 ± 4 mmHg and the “Mean arterial pressure, Baseline” value (rats) was 123 ± 6 mmHg.
With `[Cl-].[Na+]` [600 mM NaCl, NaCl] the “Mean arterial pressure, Treatment” value (rats) was 117 ± 2 mmHg and the “Mean arterial pressure, Baseline” value (rats) was 115 ± 2 mmHg.
For `OC[C@@H](O)[C@@H](O)[C@H](O)[C@H](O)CO` [1200 mOsm Mannitol, Mannitol], the “Mean arterial pressure, Treatment” value (rats) was 121 ± 7 mmHg and the “Mean arterial pressure, Baseline” value (rats) was 121 ± 6 mmHg.
With `COc1ccccc1CC(=N)N1C[C@@H]2C(=O)CCC(c3ccccc3)(c3ccccc3)[C@@H]2C1` [RP67580] the “effect on these parameters in TRPV1−/− hearts” value (TRPV1−/− hearts) was “no effect”, the “effect on PC protection assessed by LDH levels after I/R in WT hearts” value (WT hearts [1]) was “abolished” and the “effect on protective effect of OLDA in WT hearts” value (hearts of WT mice) was “abolished”. For the same compound, the “effect on cardiac function in WT hearts without I/R” value (WT hearts [2]) was “no effect on cardiac function”, the “effect on PC-induced cardiac protection (LVEDP, LVDP, CF, +dP/dt, −dP/dt) in WT hearts” value (WT hearts [2]; CAPZ 10^−7 M, CGRP8-37 10^−6 M, RP67580 10^−7 M) was “abolished” and the “effect on CF in WT hearts” value (WT hearts [2]; PC plus I/R) was “no effect on CF”. The “DSR induced-depressor effect after antagonist” value (male Wistar rats) was 9.4±2.3 mmHg.
`N=C(N)NC(=O)c1nc(Cl)c(N)nc1N` [amiloride] was tested, and the “effect on MAP (words)” value [3] was “no effect on MAP in any group”, the “time of peak urine flow rate (UFR) after injection” value [3] was 10 min and the “urine flow / urine sodium excretion (words)” value [3] was “significantly increased”. For the same compound, the “effect on MAP (words)” value ([3]; listed as Amiloride) was “no effect” and the “urine flow / urine sodium excretion (words)” value ([3]; listed as Amiloride) was “no effect”.
